Laboratory results published in patent US5407918A, “16-membered macrolide derivatives and process for producing the same” (Meiji Seika Kaisha, Ltd., priority 1992, dated 1995).
In brackets after ≈: the same amount, converted by molar mass. Like-named read-outs stand apart in the source and are kept apart here.

How the values were obtained:
test strains = assay: antimicrobial activity in vitro, comparison in words; format: cell-based
Experimental: (§1) Antimicrobial activities of the compounds of the present invention were determined by measuring minimum inhibitory concentration (MIC). Minimum inhibitory concentration was determined by the agar plate dilution method in the following manner.
(§2) Test strains were subjected to seed culture using Sensitivity test broth (STB, Nissui Pharmaceutical) except that the strains belonging to the genus Streptococcus, Branhamella and Haemophilus were cultured on blood agar plate. A 5 μl portion of cell suspension of the test strains having about 10^6 CFU/ml was inoculated into Sensitivity disk agar (SDA, Nissui Pharmaceutical) supplemented with 5% horse blood and incubated at 37° C. for 20 hours. Then, MIC was measured. For comparison, MDM and leucomycin A7 (LM-A7) was also tested.

[1] = concentration in serum after oral administration to mice, bioassay; format: in vivo, mice (Jcl:ICR)
Experimental: The compound (3) was mixed with a 0.2% solution of carboxymethylcellulose to give a concentration of 4 mg/ml and a 1 ml portion of the resulting emulsion was orally administered to 4-week-old male Jcl:ICR mice. Blood was collected from armpit of the mice 30, 60, 120, 240 and 360 minutes after the administration of the test compound (n=2). The collected blood was allowed to stand at room temperature for about 2 hours and centrifuged for 20 minutes with a centrifuge (KUBOTA KS-5000P) to obtain serum. To the serum was added an equivalent volume of 50% CH3 CN-50 mM phosphate (1:1 by volume) buffer (pH 7.0). The resulting mixture served as a serum sample. The concentration of the test compound in the serum sample was measured by the following bioassay method.
One hundred […] of the serum sample was poured into a hole made on a test plate containing 40 ml of MRAPJ medium (6 g/l peptone, 3 g/l yeast extract, 1.5 g/l meat extract, 1 g/l glucose and 15 g/l agar, pH 6.5) supplemented with a solution of M. Iuteus ATCC9341 (1%) and incubated at 32° C. for 18 hours and MIC was measured based on the calibration curve. MOM, MDM and RKM were also tested for comparison. […] Thus a long-pending problem of "low concentration in serum" of 16-membered macrolide antibiotics has been solved. […] Thus this compound is considered as a macrolide derivative showing new pharmacokinetics.
Further, a pharmacokinetics test on the compound (12) of the present invention is carried out in the same manner as described above. Namely, 200 mg/kg of the compound (12) is orally administered to mice and the concentration of this compound in the serum is determined by a bioassay method with the use of M. luteus as a test strain. […] The disadvantage of 16-membered ring macrolide antibiotics, which has been pointed out for a long time, has been thus overcome.

B. catarrhalis W-0500 = assay: MIC, agar plate dilution method; format: cell-based; conditions: Moraxella catarrhalis, W0500, 37° C., 20 hours, read-out: Antimicrobial activity (MIC)
Experimental: as §1, §2

B. catarrhalis W-0506 = assay: MIC, agar plate dilution method; format: cell-based; conditions: Moraxella catarrhalis, W0506, 37° C., 20 hours, read-out: Antimicrobial activity (MIC)
Experimental: as §1, §2

E. coli NIHJ JC-2 = assay: MIC, agar plate dilution method; format: cell-based; conditions: Escherichia coli, NIHJJC2; E. coli NIHJ JC-2; 37° C., 20 hours; read-out: Antimicrobial activity (MIC)
Experimental: as §1, §2

E. faecalis W-73 = assay: MIC, agar plate dilution method; format: cell-based; conditions: Enterococcus faecalis, W73; E. faecalis W-73; 37° C., 20 hours; read-out: Antimicrobial activity (MIC)
Experimental: as §1, §2

H. influenzae 9334 = assay: MIC, agar plate dilution method; format: cell-based; conditions: Haemophilus influenzae; H. influenzae 9334; 37° C., 20 hours; read-out: Antimicrobial activity (MIC)
Experimental: as §1, §2

H. influenzae Type b = assay: MIC, agar plate dilution method; format: cell-based; conditions: Haemophilus influenzae, read-out: Antimicrobial activity (MIC)
Experimental: as §1, §2

K. pneumoniae PC1602 = assay: MIC, agar plate dilution method; format: cell-based; conditions: Klebsiella pneumoniae, 37° C., 20 hours, read-out: Antimicrobial activity (MIC)
Experimental: as §1, §2

M. luteus ATCC9341 = assay: MIC, agar plate dilution method; format: cell-based; conditions: Micrococcus luteus; M. luteus ATCC9341; 37° C., 20 hours; read-out: Antimicrobial activity (MIC)
Experimental: as §1, §2

S. Pneumoniae Type 1 = assay: MIC, agar plate dilution method; format: cell-based; conditions: Streptococcus pneumoniae; S. Pneumoniae Type 1; 37° C., 20 hours; read-out: Antimicrobial activity (MIC)
Experimental: as §1, §2

S. Pyogenes Cook = assay: MIC, agar plate dilution method; format: cell-based; conditions: Streptococcus pyogenes, 37° C., 20 hours, read-out: Antimicrobial activity (MIC)
Experimental: as §1, §2

S. aureus 209P JC-1 = assay: MIC, agar plate dilution method; format: cell-based; conditions: Staphylococcus aureus, read-out: Antimicrobial activity (MIC)
Experimental: as §1, §2

S. aureus M126 = assay: MIC, agar plate dilution method; format: cell-based; conditions: Staphylococcus aureus, read-out: Antimicrobial activity (MIC)
Experimental: as §1, §2

S. aureus M133 = assay: MIC, agar plate dilution method; format: cell-based; conditions: Staphylococcus aureus, 37° C., 20 hours, read-out: Antimicrobial activity (MIC)
Experimental: as §1, §2

S. aureus MS15009/pMS98 = assay: MIC, agar plate dilution method; format: cell-based; conditions: Staphylococcus aureus, MS15009/PMS98, 20 h, read-out: Antimicrobial activity (MIC)
Experimental: as §1, §2

S. aureus MS15009/pMS99 = assay: MIC, agar plate dilution method; format: cell-based; conditions: Staphylococcus aureus, MS15009/PMS99, 20 h, read-out: Antimicrobial activity (MIC)
Experimental: as §1, §2

S. aureus MS15026 = assay: MIC, agar plate dilution method; format: cell-based; conditions: Staphylococcus aureus, 37° C., 20 hours, read-out: Antimicrobial activity (MIC)
Experimental: as §1, §2

S. aureus MS15027 = assay: MIC, agar plate dilution method; format: cell-based; conditions: Staphylococcus aureus, 37° C., 20 hours, read-out: Antimicrobial activity (MIC)
Experimental: as §1, §2

S. epidermidis ATCC14990 = assay: MIC, agar plate dilution method; format: cell-based; conditions: Staphylococcus epidermidis, 37° C., 20 hours, read-out: Antimicrobial activity (MIC)
Experimental: as §1, §2

S. pneumoniae IP692 = assay: MIC, agar plate dilution method; format: cell-based; conditions: Streptococcus pneumoniae; S. pneumoniae IP692; 37° C., 20 hours; read-out: Antimicrobial activity (MIC)
Experimental: as §1, §2

Gram-positive bacteria = assay: antimicrobial activity in vitro (summary in words); format: cell-based; conditions: from Tables 2 and 3
Experimental: as §1, §2

[2] = S. aureus 209P JC-1, 37° C., 20 hours
[3] = S. aureus M126, 37° C., 20 hours
[4] = H. influenzae Type b, 37° C., 20 hours

SMILES	MIC (B. catarrhalis W-0500) [µg/mL]	MIC (B. catarrhalis W-0506) [µg/mL]	MIC (E. coli NIHJ JC-2) [µg/mL]	MIC (E. faecalis W-73) [µg/mL]	MIC (H. influenzae 9334) [µg/mL]	MIC (K. pneumoniae PC1602) [µg/mL]	MIC (M. luteus ATCC9341) [µg/mL]	MIC (S. Pneumoniae Type 1) [µg/mL]	MIC (S. Pyogenes Cook) [µg/mL]	MIC (S. aureus 209P JC-1; [2]) [µg/mL]	MIC (S. aureus M126; [3]) [µg/mL]	MIC (S. aureus M133) [µg/mL]	MIC (S. aureus MS15009/pMS98) [µg/mL]	MIC (S. aureus MS15009/pMS99) [µg/mL]	MIC (S. aureus MS15026) [µg/mL]	MIC (S. aureus MS15027) [µg/mL]	MIC (S. epidermidis ATCC14990) [µg/mL]	MIC (S. pneumoniae IP692) [µg/mL]	antimicrobial activity on Gram-positive bacteria (Gram-positive bacteria)	MIC (H. influenzae Type b; [4]) [µg/mL]	also measured
CCC(=O)O[C@@H]1CC(=O)O[C@H](C)C/C=C/C=C/[C@H](OC(C)=O)[C@H](C)C[C@H](CC=O)[C@H](O[C@@H]2O[C@H](C)[C@@H](O[C@H]3C[C@@](C)(OC)[C@@H](OCCC(C)C)[C@H](C)O3)[C@H](N(C)C)[C@H]2O)[C@H]1OC [(4)]	–	–	–	–	–	–	–	–	–	–	–	–	–	–	–	–	–	–	–	–	antimicrobial activity compared with compound (3) (test strains; data are not shown): almost comparable to that of the compound (3); concentration in the serum (in words) [1]: sustains a high concentration in the serum; maximum concentration in the serum compared with compound (3) [1]: exceeds even that of the compound (3); concentration in the serum 6 hours after the administration, % of the maximum level ([1]; 6 hours): more than 80%; Tmax ([1]; mouse, serum, after the administration, read-out: time of maximum concentration in the serum): ~2 h
CCCO[C@H]1[C@H](C)O[C@@H](O[C@H]2[C@H](N(C)C)[C@@H](O)[C@H](O[C@H]3[C@@H](CC=O)C[C@@H](C)[C@@H](O)/C=C/C=C/C[C@@H](C)OC(=O)C[C@@H](O)[C@@H]3OC)O[C@@H]2C)C[C@@]1(C)OC [(9)]	1.56 (≈ 2.06 µM)	3.13 (≈ 4.13 µM)	> 100	0.78 (≈ 1.03 µM)	6.25 (≈ 8.25 µM)	> 100	0.05 (≈ 0.066 µM)	0.2 (≈ 0.264 µM)	0.1 (≈ 0.132 µM)	0.2 (≈ 0.264 µM)	> 100	0.39 (≈ 0.515 µM)	0.39 (≈ 0.515 µM)	> 100	> 100	0.39 (≈ 0.515 µM)	0.39 (≈ 0.515 µM)	0.2 (≈ 0.264 µM)	strong antimicrobial activity	–	MIC (H. influenzae Type b; 20 h): 12.5 µg/mL (≈ 16.5 µM)
CCCCO[C@H]1[C@H](C)O[C@@H](O[C@H]2[C@H](N(C)C)[C@@H](O)[C@H](O[C@H]3[C@@H](CC=O)C[C@@H](C)[C@@H](O)/C=C/C=C/C[C@@H](C)OC(=O)C[C@@H](O)[C@@H]3OC)O[C@@H]2C)C[C@@]1(C)OC [(10)]	0.78 (≈ 1.01 µM)	1.56 (≈ 2.02 µM)	> 100	0.78 (≈ 1.01 µM)	3.13 (≈ 4.05 µM)	> 100	0.05 (≈ 0.0648 µM)	0.2 (≈ 0.259 µM)	0.1 (≈ 0.13 µM)	0.1 (≈ 0.13 µM)	> 100	0.39 (≈ 0.505 µM)	0.39 (≈ 0.505 µM)	> 100	> 100	0.39 (≈ 0.505 µM)	0.39 (≈ 0.505 µM)	0.1 (≈ 0.13 µM)	strong antimicrobial activity	12.5 (≈ 16.2 µM)	antimicrobial activity in vitro compared with MOM (test strains; data are not shown): clearly much superior to MOM; antimicrobial activity compared with LM-A7 (test strains; except on Haemophilus influenzae, Tables 2 and 3): comparable or superior
CO[C@@H]1[C@@H](O[C@@H]2O[C@H](C)[C@@H](O[C@H]3C[C@@](C)(OC)[C@@H](OCCC(C)C)[C@H](C)O3)[C@H](N(C)C)[C@H]2O)[C@@H](CC=O)C[C@@H](C)[C@@H](OC(C)=O)/C=C/C=C/C[C@@H](C)OC(=O)C[C@H]1O [(13)]	–	–	–	–	–	–	–	–	–	–	–	–	–	–	–	–	–	–	–	–	antimicrobial activity compared with compound (12) (test strains; data are not shown): comparable in the antimicrobial activity to the compound (12)
CCO[C@]1(C)C[C@H](O[C@H]2[C@H](N(C)C)[C@@H](O)[C@H](O[C@H]3[C@@H](CC=O)C[C@@H](C)[C@@H](O)/C=C/C=C/C[C@@H](C)OC(=O)C[C@@H](O)[C@@H]3OC)O[C@@H]2C)O[C@@H](C)[C@@H]1OCCC(C)C [(14)]	0.39 (≈ 0.487 µM)	0.78 (≈ 0.975 µM)	> 100	0.78 (≈ 0.975 µM)	6.25 (≈ 7.81 µM)	> 100	0.05 (≈ 0.0625 µM)	0.2 (≈ 0.25 µM)	0.1 (≈ 0.125 µM)	0.2 (≈ 0.25 µM)	> 100	0.78 (≈ 0.975 µM)	0.39 (≈ 0.487 µM)	> 100	> 100	0.39 (≈ 0.487 µM)	0.78 (≈ 0.975 µM)	0.2 (≈ 0.25 µM)	strong antimicrobial activity	12.5 (≈ 15.6 µM)	–
CCCO[C@]1(C)C[C@H](O[C@H]2[C@H](N(C)C)[C@@H](O)[C@H](O[C@H]3[C@@H](CC=O)C[C@@H](C)[C@@H](O)/C=C/C=C/C[C@@H](C)OC(=O)C[C@@H](O)[C@@H]3OC)O[C@@H]2C)O[C@@H](C)[C@@H]1OCCC(C)C [(15)]	0.78 (≈ 0.958 µM)	0.78 (≈ 0.958 µM)	> 100	0.78 (≈ 0.958 µM)	6.25 (≈ 7.68 µM)	> 100	0.1 (≈ 0.123 µM)	0.2 (≈ 0.246 µM)	0.1 (≈ 0.123 µM)	0.2 (≈ 0.246 µM)	> 100	0.78 (≈ 0.958 µM)	0.39 (≈ 0.479 µM)	> 100	> 100	0.39 (≈ 0.479 µM)	0.78 (≈ 0.958 µM)	0.2 (≈ 0.246 µM)	strong antimicrobial activity	–	MIC (H. influenzae Type b; 20 h): 50 µg/mL (≈ 61.4 µM)
CCC(=O)O[C@H]1[C@H](C)O[C@@H](O[C@H]2[C@H](N(C)C)[C@@H](O)[C@H](O[C@H]3[C@@H](CC=O)C[C@@H](C)[C@@H](O)/C=C/C=C/C[C@@H](C)OC(=O)C[C@@H](O)[C@@H]3OC)O[C@@H]2C)C[C@@]1(C)O [LM-A7, leucomycin A7, reference compound]	0.78 (≈ 1.03 µM)	1.56 (≈ 2.06 µM)	> 100	0.78 (≈ 1.03 µM)	0.78 (≈ 1.03 µM)	> 100	0.05 (≈ 0.066 µM)	0.2 (≈ 0.264 µM)	0.1 (≈ 0.132 µM)	–	–	0.39 (≈ 0.515 µM)	0.39 (≈ 0.515 µM)	> 100	> 100	0.39 (≈ 0.515 µM)	0.39 (≈ 0.515 µM)	0.2 (≈ 0.264 µM)	–	6.25 (≈ 8.25 µM)	MIC (S. aureus 209P JC-1; 209P, 20 h): 0.2 µg/mL (≈ 0.264 µM); MIC (S. aureus M126; M126, 20 h): > 100 µg/mL
